Laboratory results reported in patent US6277861A, “Anti-convulsant isoquinolyl-benzamide derivatives” (SmithKline Beecham, p.l.c., priority 1997, dated 2001).
Structures can show the parent of a compound that is named as a salt.

What was measured:
[1] = biological target: novel receptor obtainable from rat forebrain tissue ([3H]-Compound A binding site); experiment: Radioligand binding assay, displacement of [3H]-Compound A from rat forebrain tissue; conditions: competition with [3H]-Compound A, Table
Method: WO 92/22293 (SmithKline Beecham) discloses compounds having anti-convulsantactivity, including inter alia the compound trans-(+)-6-acetyl-4S-(4-fluorobenzoylamino)-3,4-dihydro-2,2-dimethyl-2H-1-benzopyran-3R-ol (hereinafter referred to as Compound A). […] The affinity of test compounds to the novel receptor site is assessed as follows. Whole forebrain tissue is obtained from rats. The tissue is first homogenised in buffer (usually 50 mM Tris/HCl, pH 7.4). The homogenised tissue is washed by centrifugation and resuspension in the same buffer, then stored at -70° C. until used. To carry out the radioligand binding assay, aliquots of tissue prepared as above (usually at a concentration of 1-2 mg protein/ml) are mixed with aliquots of [3H]-Compound A dissolved in buffer. The final concentration of [3H]-Compound A in the mixture is usually 20 nM. The mixture is incubated at room temperature for 1 hour. [3H]-Compound A bound to the tissue is then separated from unbound [3H]-Compound A by filtration through Whatman GF/B glass fibre filters. The filters are then washed rapidly with ice-cold buffer. The amount of radioactivity bound to the tissue trapped on the filters is measured by addition of liquid scintillation cocktail to the filters followed by counting in a liquid scintillation counter. In order to determine the amount of "specific" binding of [3H]-Compound A, parallel assays are carried out as above in which [3H]-Compound A and tissue are incubated together in the presence of unlabelled Compound A (usually 3 μM). The amount of binding of [3H]-Compound A remaining in the presence of this unlabelled compound is defined as "non-specific" binding. This amount is subtracted from the total amount of [3H]-Compound A binding (i.e. that present in the absence of unlabelled compound) to obtain the amount of "specific" binding of [3H]-Compound A to the novel site. The affinity of the binding of test compounds to the novel site can be estimated by incubating together [3H]-Compound A and tissue in the presence of a range of concentrations of the compound to be tested. The decrease in the level of specific [3H]-Compound A binding as a result of competition by increasing concentrations of the compound under test is plotted graphically, and non-linear regression analysis of the resultant curve is used to provide an estimate of compound affinity in terms of pKi value.

[2] = test system: maximal electroshock seizure threshold; experiment: Maximal electroshock seizure (MEST) threshold test, rat model; assay type: in vivo, rats; conditions: percentage increase in CC50 compared to the control, suspended in 1% methyl cellulose
Method: The maximal electroshock seizure (MEST) threshold test in rodents is particularly sensitive for detecting potential anticonvulsant properties^1. In this model, anticonvulsant agents elevate the threshold to electrically-induced seizures whilst proconvulsants lower the seizure threshold. The threshold for maximal (tonic hindlimb extension) electroshock seizures in male rats (Sprague Dawley, 80-150 g, 6 weeks old) was determined by a Hugo Sachs Electronik stimulator which delivered a constant current (0.3 sec duration; from 1-300 mA in steps of 5-20 mA). The procedure is similar to that outlined above for mouse and full details are as published by Upton et al,.^4 The percentage increase or decrease in CC50 for each group compared to the control is calculated. Drugs are suspended in 1% methyl cellulose.

[3] = test system: maximal electroshock seizure threshold; experiment: Maximal electroshock seizure (MEST) threshold test, mouse model; assay type: in vivo, mice; conditions: 10 mg/kg p.o. at 2 h
Method: The maximal electroshock seizure (MEST) threshold test in rodents is particularly sensitive for detecting potential anticonvulsant properties^1. In this model, anticonvulsant agents elevate the threshold to electrically-induced seizures whilst proconvulsants lower the seizure threshold.
Mice (naive male, Charles River, U.K. CD-1 strain, 25-30 g) are randomly assigned to groups of 10-20 and dosed orally or intraperitoneally at a dose volume of 10 ml/kg with various doses of compound (0.3-300 mg/kg) or vehicle. […] The mean current and standard error required to induce a tonic seizure in 50% (CC50) of the mice in a particular treatment group is determined by the `up and down` method of Dixon and Mood (1948)^2. Statistical comparisons between vehicle- and drug-treated groups are made using the method of Litchfield and Wilcoxon (1949)^3.
In control animals the CC50 is usually 14-18 mA. […] If a tonic convulsion does occur, then the current is decreased, and so on until all the animals in the group have been tested.
Studies are carried out using a Hugo Sachs Electronik Constant Current Shock Generator with totally variable control of shock level from 0 to 300 mA and steps of 2 mA are usually used.

Structure (SMILES): CCOc1ccc(C(=O)Nc2ccc3c(c2)CN(C)CC3(C)C)cc1Br [Example 10, N-(2,4,4-Trimethyl-4H-isoquinolin-7-yl)-3-bromo-4-ethoxybenzamide]
- pKI Compound A [1]: 8.2
- Rat MEST at 2 mg/kg p.o at 2h (increases) [2]: 294

Structure (SMILES): COc1cc(C(C)(C)C)ccc1C(=O)Nc1cccc2c1CCN(C)C2C (racemic) [Example 5, (±) N-(1,2-Dimethyl-1,2,3,4-tetrahydroisoquinolin-5-yl)-tert-butyl-2-methoxybenzamide, hydrochloride]
- percentage increases in seizure threshold [3]: 46%

Structure (SMILES): CCc1ccc(C(=O)Nc2ccc3c(c2)CN(C)CC3(C)C)cc1Br [Example 9, N-(2,4,4,-Trimethyl-4H-isoquinolin-7-yl)-3-bromo-4-ethylbenzamide]
- pKI Compound A [1]: 8.3
- Rat MEST at 2 mg/kg p.o at 2h (increases) [2]: 53

Structure (SMILES): COc1ccc(C(=O)Nc2ccc3c(c2)CN(C)CC3(C)C)cc1C(F)(F)F.Cl [Example 7, N-(2,4,4-Trimethyl-4H-isoquinolin-7-yl)-4-methoxy-3-trifluoromethylbenzamide, hydrochloride]
- pKI Compound A [1]: 8.5
- Rat MEST at 2 mg/kg p.o at 2h (increases) [2]: 510

Structure (SMILES): CC(C)Oc1ccc(C(=O)Nc2ccc3c(c2)CN(C)CC3(C)C)cc1Cl [Example 11, N-(2,4,4-Trimethyl-4H-isoquinolin-7-yl)-3-chloro--4-iso-propoxybenzamide]
- pKI Compound A [1]: 7.9
- Rat MEST at 2 mg/kg p.o at 2h (increases) [2]: 204

Structure (SMILES): COc1cc(C)c(C(F)(F)F)cc1C(=O)Nc1cccc2c1CCN(C)C2C (racemic) [Example 6, (±) N-(1,2-Dimethyl-1,2,3,4-tetrahydroisoquinolin-5-yl)-5-trifluoromethyl-2-methoxy-4-methyl benzamide, hydrochloride]
- percentage increases in seizure threshold [3]: 36%

Structure (SMILES): COc1cc(OC(C)C)c(Cl)cc1C(=O)Nc1cccc2c1CCN(C)C2C (racemic) [Example 4, (±) N-(1,2-Dimethyl-1,2,3,4-tetrahydroisoquinolin-5-yl)-5-chloro-4-iso-propoxy-2-methoxybenzamide, hydrochloride]
- percentage increases in seizure threshold [3]: 47%

Structure (SMILES): CC(C)c1ccc(C(=O)Nc2ccc3c(c2)CN(C)CC3(C)C)cc1C#N [Example 8, N-(2,4,4-Trimethyl-4H-isoquinolin-7-yl)-3-cyano-4-iso-propylbenzamide]
- pKI Compound A [1]: 8.0
- Rat MEST at 2 mg/kg p.o at 2h (increases) [2]: 120
